Experimental data published in PMC8014119 (Angewandte Chemie (International Ed. in English), 2021).
Where two headings read alike, the source gives them in different places.

How the values were obtained:
[1] = tested on: SARS-CoV-2; settings: Vero E6 cells; cited from earlier work
[2] = biological target: SARS-CoV-2 Mpro (Severe acute respiratory syndrome coronavirus 2, UniProt P0DTD1); format: biochemical
[3] = biological target: His-tagged SARS-CoV-2 Mpro (Severe acute respiratory syndrome coronavirus 2, UniProt P0DTD1); experiment: Mpro inhibition in the presence of mammalian cell lysates; format: biochemical; settings: 50 µM substrate, 10 min, 37 °C
[4] = biological target: human cathepsin L (Homo sapiens, UniProt P07711); experiment: Inhibition of human cathepsin L; format: biochemical; settings: in words
[5] = biological target: human cathepsin B (Homo sapiens, UniProt P07858); experiment: Inhibition of human cathepsin B; format: biochemical; settings: in words
[6] = Table 2, azapeptide nitriles, 50 µM substrate, pH 7.2, 37 °C, 60 min
[7] = Table 3, 5-halopyridin-3-yl esters, kinetic analysis as Table 2

Sequence of human cathepsin L (P07711 114-333): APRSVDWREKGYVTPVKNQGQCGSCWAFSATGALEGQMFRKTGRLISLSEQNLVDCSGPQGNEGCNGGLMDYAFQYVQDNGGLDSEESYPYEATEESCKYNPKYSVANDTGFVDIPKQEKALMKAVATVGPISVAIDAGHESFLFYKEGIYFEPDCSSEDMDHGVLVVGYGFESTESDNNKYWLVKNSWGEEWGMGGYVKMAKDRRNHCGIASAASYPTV

Structure (SMILES)	k inac/K i [2, 6]	Mpro inhibition in HEK and A549 cell lysates ([3]; inhibitor 1 μM)	k inac/K i [2, 7]	also measured
O=C(Oc1cncc(Cl)c1)c1cccc2c1CCN2 [5‐chloropyridin‐3‐yl dihydroindole‐4‐carboxylate]				activity against infectivity and replication of SARS-CoV-2 [1]: active
CC(C)C[C@H](NC(=O)OCc1ccccc1)C(=O)N(C)N(C#N)CCC(N)=O [Compound 3]	489 M⁻¹ s⁻¹			
CN(C(=O)[C@H](Cc1ccccc1)NC(=O)OCc1ccccc1)N(C#N)CCC(N)=O [Compound 4]	1150 M⁻¹ s⁻¹			Mpro inhibition in HEK and A549 cell lysates ([3]; inhibitor 10 μM): virtually complete inhibition
CC(C)C[C@H](NC(=O)[C@@H](NC(=O)OCc1ccccc1)C(C)(C)C)C(=O)N(C)N(C#N)CCC(N)=O [Compound 5]	2060 M⁻¹ s⁻¹			
CN(C(=O)[C@H](Cc1ccccc1)NC(=O)[C@@H](NC(=O)OCc1ccccc1)C(C)(C)C)N(C#N)CCC(N)=O [Compound 6]	36 000 M^−1 s^−1	virtually complete inhibition		
CC[C@H](NC(=O)OCc1ccccc1)C(=O)N[C@H](C(=O)N[C@@H](CC(C)C)C(=O)N(C)N(C#N)CCC(N)=O)C(C)(C)C [Compound 7]	21 400 M^−1 s^−1			
CC[C@H](NC(=O)OCc1ccccc1)C(=O)N[C@H](C(=O)N[C@@H](Cc1ccccc1)C(=O)N(C)N(C#N)CCC(N)=O)C(C)(C)C [Compound 8]		virtually complete inhibition		
O=C(Oc1cncc(Cl)c1)c1cc2cc(Cl)ccc2[nH]1 [Compound 17]		virtually complete inhibition	29 100 M^−1 s^−1	cathepsin L inhibition [4]: did not inhibit; cathepsin B inhibition [5]: did not inhibit
O=C(Oc1cncc(Br)c1)c1cccc2[nH]ccc12 [Compound 18]			24 000 M^−1 s^−1	
O=C(Oc1cncc(Cl)c1)c1ccc2[nH]c3c(c2c1)CCCC3 [Compound 19]			5620 M⁻¹ s⁻¹	
